Data as given in patent publication US4774381A, “Herbicide resistant tobacco” (E. I. Du Pont de Nemours and Company, priority 1985, dated 1988).

Columns and labels:
[1] = system: acetolactate synthase (ALS), Isolate 16 (S4/S4) extract; experiment: ALS activity assay in cell extracts; assay type: biochemical, Nicotiana tabacum; details: for Uninhibited activity (%) in the Presence of Chlorsulfuron: Isolate 16 (S4/S4)
Experimental: Cell suspension cultures of normal (H1) and homozygous mutant (Isolate 16) cell lines were washed in C1 liquid medium. After washing, cells were extracted in a 100 mM potassium phosphate buffer (pH 7.5) containing 0.5 mM MgCl2, 1 mM sodium pyruvate, 0.5 mM thiamine pyrophosphate, 10 micromolar flavine-adenine dinucleotide (FAD) and 10 percent (by volume) glycerol. Polyclar AT (BDH Chemicals Ltd) was added to a final concentration of 250 mg per gram fresh weight of tissue. After centrifugation at 27,000xg for 15 minutes at 4°, an equal volume of a saturated solution of amminium sulfate was added to the supernatant fraction. The resultant precipitate (representing a 0 to 50 percent ammonium sulfate fraction) was redissolved in 100 mM potassium phosphate buffer (pH 7.5) containing 0.5 mM MgCl2, 1 mM sodium pyruvate, and salts were removed by passage through a Sephadex G-25 (Pharmacia PD-10) column.
ALS activity was assayed in a total volume of 500 microliters containing 100 microliters of the column eluate, 65 mM potassium phosphate buffer (pH 7.5) containing 10 mM MgCl2, 40 mM sodium pyruvate, 250 micromolar thiamine pyrophosphate, 23 micromolar FAD, and 1, 5, 10, 50, 100, 500 or 1000 ppb chlorsulfuron or sulfometuron-methyl. After incubation at 30° for 90 minutes, 250 microliters of 6N H2 SO4 was added to each assay tube, and the tubes were incubated at 55° for 10 minutes to terminate the enzymatic reaction and achieve complete conversion of acetolactate to acetoin. Acetoin content was then measured by a modification of the procedure described by Westerfield, J. Biol. Chem. 161:495 (1945). To each tube was added sequentially 100 microliters 50 percent NaOH, 150 microliters 0.5 percent creatine, and 150 microliters 5 percent alpha-napthol (in 2.5N NaOH). Color development was accelerated by incubation at 55° for 10 minutes. Tubes were then centrifuged, and the optical density was read at 530 nm. Background optical densities, which were subtracted from the optical density values of the reactions, were determined for each extract from parallel assays to which the enzyme extract was added after the addition of 6N H2 SO4. Protein concentrations were measured with Bio-Rad Protein Assay reagent with bovine serum albumin as a standard. Data points and specific activities, which are set forth below and in FIG. 2, represent the average values of at least three independent determinations. ALS activities are presented in FIG. 2 as percent activity in the absence of herbicide.
Responses to chlorsulfuron were determined for ALS activities in extracts of cells suspension cultures derived from nine individuals that differed with resepct to the S4 mutation. As described above, these individuals were produced by self-fertilization of an S4/+ heterozygote, and their genotypes were established by means of progeny analysis. Callus and plant phenotypes were determined by growth responses of cell cultures and seedlings, respectively, on herbicide-supplemented medium. […] In contrast, all individuals homozygous for the S4 mutation contained a highly resistant form of the enzyme. […] The correlation between both callus and plant phenotype and the response of ALS activity in vitro to the herbicide is both absolute and quantitative.

[2] = system: S6/S6 homozygous mutant cell line; experiment: Callus growth test; assay type: cell-based, Nicotiana tabacum; details: 10 ppb herbicide
Experimental: (§1) Callus growth tests were conducted substantially according to the following procedure. Approximately 50 mg callus tissue, grown on non-selective media, was spread over 7 cm diameter paper filter discs (Whatman No. 1), which were placed on the medium surface of petri dishes containing C1 agar media and varying concentrations of chlorsulfuron. The resulting cultures were incubated for 14 days at 25±1°, under fluorescent lamps programmed to provide a 16-hour photoperiod per day. At the conclusion of the incubation period, tissue was scraped from each filter disc and weighed. The final fresh weights were recorded, and means and standard errors of the means determined for all cases. The significance of differences between responses of individual cell lines to various concentrations of chlorsulfuron was determined at a probability level of 5% by a t-test for populations having different standard deviations, as described by Snedecor, et al., Statistical Methods (Iowa State University Press, Ames, Iowa, (1967), pp. 114-116).
(§2) A series of experiments was performed to investigate further the cross-resistance of various resistant cell lines to other herbicidally-effective sulfonamides. First, several homozygous mutant cell lines were evaluated for resistance to sulfometuron-methyl and chlorsulfuron by callus growth tests, performed substantially similarly to the callus growth experiments previously described. In these experiments, callus cultures were derived from R1 plants, which constitute the progeny produced by self-fertilization of a regenerated plant.

[3] = system: S5/S5 homozygous mutant cell line; experiment: Callus growth test; assay type: cell-based, Nicotiana tabacum; details: 10 ppb herbicide
Experimental: as §1, §2

[4] = system: S1/S1 homozygous mutant cell line; experiment: Callus growth test; assay type: cell-based, Nicotiana tabacum; details: 10 ppb herbicide
Experimental: as §1, §2

[5] = system: S4/S4 homozygous mutant cell line; experiment: Callus growth test; assay type: cell-based, Nicotiana tabacum; details: for % of control fresh weight / Fr. Wt.: 10 ppb herbicide, S4/S4 (Table 4)
Experimental: as §1, §2

[6] = system: C4/C4 homozygous mutant cell line; experiment: Callus growth test; assay type: cell-based, Nicotiana tabacum; details: 10 ppb herbicide
Experimental: as §1, §2

[7] = system: C3/C3 homozygous mutant cell line; experiment: Callus growth test; assay type: cell-based, Nicotiana tabacum; details: 10 ppb herbicide
Experimental: as §1, §2

Normal (H1) cell line = experiment: Callus growth test; assay type: cell-based, Nicotiana tabacum; details: for % of control fresh weight / Fr. Wt.: 10 ppb herbicide, H1 (Table 4)
Experimental: as §1, §2

[8] = system: callus cultures derived from plants that carried the S4 mutation; experiment: Callus growth on herbicide-supplemented medium; assay type: cell-based, Nicotiana tabacum; details: herbicide at 5 parts per billion (ppg) (14 nM)
Text: A plant heterozygous for the S4 mutation was constructed by a series of backcrosses of a plant regenerated from a herbicide-resistant tobacco cell line with plants of the parental variety (N. tabacum cv. Xanthi). Self-fertilization of this heterozygous individual yielded homozygous mutant, heterozygous, and homozygous normal progeny in the ratio of 1 to 2 to 1, respectively, which is expected for segregation of a single semidominant nuclear allele. The genotypes of these progeny plants were confirmed by analysis of a subsequent generation. Callus cultures were established as previously described from several of the genetically defined isolates produced by self-fertilization of the S4/+ heterozygote. […] Cell suspension cultures were initiated from these callus cultures and from the parental haploid cell line (H1) by transferring callus to a liquid C1 medium in which 2,4-dichlorophenoxyacetic acid (2 mg/L) had been substituted for napthaleneacetic acid and from which agar had been omitted. ALS activity was then assayed in extracts prepared from these cell suspension cultures as follows.

Compound	% of control fresh weight [2] [%]	Fr. Wt. [2]	% of control fresh weight [3] [%]	Fr. Wt. [3]	% of control fresh weight [4] [%]	Fr. Wt. [4]	% of control fresh weight [5] [%]	Fr. Wt. [5]	% of control fresh weight [6] [%]	Fr. Wt. [6]	% of control fresh weight [7] [%]	Fr. Wt. [7]	% of control fresh weight (Normal (H1) cell line) [%]	Fr. Wt. (Normal (H1) cell line)	growth on supplemented medium [8]	also measured
COC(=O)c1ccccc1S(=O)(=O)NC(=O)Nc1nc(C)cc(C)n1 [Sulfometuron-methyl, sulfometuron-methyl]	26.5	887 ± 92	13.0	344 ± 55	6.4	172 ± 14	33.6	1105 ± 80	83.9	3473 ± 323	62.6	1369 ± 63	1.2	32 ± 2	capable of growth	resistance of mutant ALS activity to inhibition ([1]; mutant cell line versus parental activity): more resistant than the parental activity; growth of S4/S4 mutant cell line ([5]; 200 ppb sulfometuron-methyl): completely inhibits growth; activity at 0.01 µg/mL ([5]; Nicotiana tabacum, 336 h, sulfometuron-methyl 10 ppb, S4/S4 (Table 6), read-out: % of fresh weight at 0 ppb): 34%; Fr. wt. ([5]; sulfometuron-methyl 10 ppb, S4/S4 (Table 6)): 1105 ± 80 mg; activity at 0.001 µg/mL (Normal (H1) cell line; Nicotiana tabacum, 336 h, sulfometuron-methyl 1 ppb, Normal (H1) (Table 6), read-out: % of fresh weight at 0 ppb): 1.4%; activity at 0.01 µg/mL (Normal (H1) cell line; Nicotiana tabacum, 336 h, sulfometuron-methyl 10 ppb, Normal (H1) (Table 6), read-out: % of fresh weight at 0 ppb): 1%; Fr. wt. (Normal (H1) cell line; sulfometuron-methyl 1 ppb, Normal (H1) (Table 6)): 39 ± 2 mg; Fr. wt. (Normal (H1) cell line; sulfometuron-methyl 10 ppb, Normal (H1) (Table 6)): 29 ± 1 mg
COc1nc(C)nc(NC(=O)NS(=O)(=O)c2ccccc2Cl)n1 [Chlorsulfuron, chlorsulfuron]	32.1	1076 ± 108	27.5	725 ± 95	11.5	309 ± 34	96.5	3171 ± 260	83.5	3453 ± 231	86.7	1896 ± 119	1.3	33 ± 2	capable of growth	Uninhibited activity (%) in the Presence of Chlorsulfuron ([1]; 10 ppb): […]; Uninhibited activity (%) in the Presence of Chlorsulfuron ([1]; 30 ppb): […]; Uninhibited activity (%) in the Presence of Chlorsulfuron ([1]; 100 ppb): […]; concentration inhibiting ALS activity 50 percent ([1]; homozygous mutant extract, not achieved at highest concentration tested, 90 min): […]; IC50 ([1]; homozygous mutant extract, not achieved at highest concentration tested, read-out: concentration inhibiting ALS activity 50 percent): […]; inhibition at 0.028 µM ([5]; Nicotiana tabacum, 10 ppb (28 nM), homozygous mutant cell line, read-out: growth inhibited (percent)): < 5%
